Measured values as given in patent US4877790A, “Quinazoline derivative, processes for its production, and cerebral dysfunction remedying agent comprising it as active ingredient” (Kanebo Limited, priority 1987, dated 1989).
Structures can show the parent of a compound that is named as a salt.

Assays:
[1] = tested on: carbon dioxide-induced amnesia, male mice of the ddY strain; assay: Anti-CO2-induced amnesia activity (one-trial passive avoidance response); type: in vivo; conditions: oral, Table 1
Description: Anti-CO2 -induced amnesia activity (the activity of remedying hypoxia-induced deficits in learning and memory):
Male mice of the ddY strain (body weight 20-30 g, 30 per group) were used. Anti-CO2 -induced amnesia activity was determined by using one-trial passive avoidance response as an index.
The experimental device consisted of two compartments, one illuminated and the other dark, with a guillotine door in the boundary of the two compartments permitting free passage of the mice through it.
In an acquisition trial, a mouse was placed in the illuminated compartment and allowed to enter the dark one. As soon as the mouse entered the dark compartment, the door was shut, and an electrical shock (0.5 mA, 0.2 sec.) was applied through the grid floor. Thus, the mouse was caused to learn that it receives an electric shock upon entering the dark room. In a retrieval trial, the mouse was again placed in the illuminated compartment 24 hours after the acquisition trial, and the time elapsed until it entered the dark compartment (response latency) was measured to an extent of 300 seconds at the longest. (One-trial passive avoidance response). […]

[2] = tested on: complete ischemia by decapitation, male mice of the ddY strain; assay: Anti-hypoxic activity: brain protection against complete ischemia by decapitation (gasping persistent time); type: in vivo; conditions: oral, Table 2
Description: (1) Brain protection against complete ischemia by decapitation:
Male mice of the ddY strain (body weight 20-25 g, 5 per group) were orally given the compound of the invention (dihydrochloride) dissolved in 1% gum arabic solution. One hour later, the mice were decapitated, and the time elapsed until a gasping-like mouth opening movement appearing after decapitation ceased (gasping persistent time) was measured, and compared with that obtained with the control group (the group to which 1% gum arabic solution was administered.

[3] = tested on: normobaric hypoxia, male mice of the ddY strain; assay: Anti-hypoxic activity: brain protection against normobaric hypoxia (survival time); type: in vivo; conditions: oral, Table 3
Description: (2) Brain protection against normobaric hydpoxia
Male mice of the ddY strain (body weight 20-25g, 5 per group) were orally administered with the compound of the invention (dihydrochloride) dissolved in a 1% gum arabic solution. One hour after the adminstration, the mouse was put in a transparent plastic container (capacity 27 liters) through which 100% nitrogen was passed at a rate of 80 liters/min. The time elasped until the animal died (the survival time) was measured, and compared with that obtained with the control group (the group to which 1% gum arabic solution was administered).

[4] = tested on: formation of lipid peroxide by autoxidation (brain homogenate); assay: Lipid peroxide formation inhibiting activity (antioxidant activity), MDA in brain homogenate; type: biochemical, rats; conditions: for Antioxidant activity (percent inhibition of autoxidation): 37° C. 30 minutes, n = 4, mean ± standard error
Description: Lipid peroxide formation inhibiting activity (antioxidant activity):
The effect of the test compound on the formation of lipid peroxide by autoxidation was determined by the amount of malondialdehyde (MDA) formed.
Rats were decapitated, and the cerebrum was taken out and homogenized with 4 ml, per gram of the cerebrum, of 50 mM phosphate saline-buffer (pH 7.4) and centrifuged (2800 rpm, 10 minutes). The supernatant was taken into a 10 ml test tube to obtain a brain homogenate. It was frozen at -70° C. and stored.
The brain homogenate was defrozen, and immediately then, diluted to 10-fold with the aforesaid phosphate saline-buffer. A 2 ml portion of the dilution was taken into a 10 ml test tube cooled with ice, and used to measure its antioxidant activity. Twenty microliters of an aqueous solution of the compound of this invention (dihydrochloride) was added. The amount of MDA immediately after the addition was measured as shown below (MDA0 time). The mixture was incubated at 37° C. for 30 minutes. […] After cooling with ice, the cooled mixture was centrifuged (2800 rpm, 10 minutes). To 1 ml of the supernatant, 0.5 ml of 0.5 % thiobarbituric acid solution dissolved in 50% acetic acid solution was added, and the mixture was heated at 100° C. for 15 minutes. After cooling with ice, the absorbance of the solution at 532 nm was measured, and the amount of MDA formed was determined (MDA test).
As a control, the amount of MDA (MDAcont) was determined as above.
The antioxidant activity of the compound of the invention was expressed in terms of percent inhibition of autoxidation on the brain homogenate. The calculation was based on the following equation. [formula]

[5] = tested on: deficit of memory induced by scopolamine hydrobromide, male mice of the ddY strain; assay: Anti-scopolamine-induced amnesia activity (one-trial passive avoidance response); type: in vivo; conditions: i.p. and p.o., Table 5
Description: Anti-scopolamine-induced amnesia activity:
Male mice of the ddY strain (body weight 20-25g, 20 per group) were used, and the activity of the test compound on deficit of memory induced by scopolamine hydrobromide (a muscarinic acetylcholine receptor antagonist) was examined using one-trial passive avoidance response as an index.
Using the same experimental device as in Test Example 1, the same acquisition trial and retrieval trial as in Test Example 1 were carried out (one-trial passive avoidance response.)
Scopolamine hydrobromide (1 mg/kg) was intraperitoneally (i.p.) administered to the animals 20 minutes before the acquisition trial. The compound of the invention (dihydrochloride) was dissolved in 1 % gum arabic solution, and intraperitoneally adminstered immediately after the acquisition trial, and orally (p.o.) administered 60 minutes before the acquisition trial.
A 1% solution of gum arabic was administered to the control group.

C=CCN1CCN(c2nc(OCCCCC)c3ccccc3n2)CC1 [Compound of the invention (2HCl), 2-(4-allyl-l-piperazinyl)-4-pentyloxyquinazoline dihydrochloride]
anti-carbon dioxide induced amnesia activity (in words) [1]: showed a significant anti-carbon dioxide induced amnesia activity
activity of prolonging the gasping persistent time (in words) [2]: showed a significant activity of prolonging the gasping persistent time
activity of prolonging the survival time (in words) [3]: showed a significant activity of prolonging the survival time
Antioxidant activity (percent inhibition of autoxidation) ([4]; 10 μM): 6.4 ± 7.7%
Antioxidant activity (percent inhibition of autoxidation) ([4]; 30 μM): 27.1 ± 6.8%
Antioxidant activity (percent inhibition of autoxidation) ([4]; 100 μM): 77.9 ± 3.1%
Antioxidant activity (percent inhibition of autoxidation) ([4]; 300 μM): 93.4 ± 2.2%
activity of inhibiting formation of lipid peroxide (antioxidant activity) (in words) ([4]; Table 4): showed the activity of inhibiting formation of lipid peroxide
anti-scopolamine-induced amnesia activity (in words) [5]: showed a significant anti-scopolamine-induced amnesia activity
